The target of assay [1] is MDM2-p53 interaction (in vitro translated MDM2) (Homo sapiens (Human), UniProt Q00987). As to the kind of experiment: MDM2-p53 interaction 96-well plate binding assay (ELISA). The settings on record: for MDM2 % inhibition at 0.0010: at 0.0010 μM. For orientation: ELISA stands for enzyme-linked immunosorbent assay.
A further assay has as its system SJSA-1. As to the kind of experiment: Protocol B: CellTiter-Glo cell viability assay. A general note: Cellular ATP, detected with luciferase, serves as a proxy for viable cell number.
The subject of assay [2] is SJSA-1 (p53 wild-type, MDM2 amplified osteosarcoma). Briefly: Protocol A: SRB growth inhibition assay. To be noted: read-out: SJSA-1 IC50 (μM) (Protocol A).
The next assay deals with SN40R2. Briefly: Protocol B: CellTiter-Glo cell viability assay. To be noted: read-out: SN40R2 (Protocol B) % inhibition at 10, Protocol B.
The mark [3] stands for this setting: read-out: SJSA1 IC50 (μM) (Protocol B), Protocol B.

Read-outs that look alike come from different tables or passages of the source.

Sequence of MDM2-p53 interaction (in vitro translated MDM2) (Q00987 whole entry): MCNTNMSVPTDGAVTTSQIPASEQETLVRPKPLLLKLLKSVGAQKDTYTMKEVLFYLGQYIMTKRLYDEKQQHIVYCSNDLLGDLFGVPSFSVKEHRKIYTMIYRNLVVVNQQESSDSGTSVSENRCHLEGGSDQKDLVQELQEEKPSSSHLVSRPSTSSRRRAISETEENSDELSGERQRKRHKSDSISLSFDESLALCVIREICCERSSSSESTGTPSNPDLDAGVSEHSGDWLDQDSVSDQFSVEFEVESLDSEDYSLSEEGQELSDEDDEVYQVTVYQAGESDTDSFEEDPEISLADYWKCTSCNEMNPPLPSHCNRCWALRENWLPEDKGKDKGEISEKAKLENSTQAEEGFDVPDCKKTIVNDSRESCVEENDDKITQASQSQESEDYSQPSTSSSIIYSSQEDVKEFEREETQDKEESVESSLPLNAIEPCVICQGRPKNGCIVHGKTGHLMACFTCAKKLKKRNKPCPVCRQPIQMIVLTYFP

For orientation: IC50 means the concentration needed to halve the response being measured. For the compound “1-({[(1R)-1-(4-chlorophenyl)-2-[(5-chloropyridin-2-yl)methyl]-7-fluoro-5-{1-hydroxy-1-[1-(2-hydroxyethyl)piperidin-4-yl]ethyl}-3-oxo-2,3-dihydro-1H-isoindol-1-yl]oxy}methyl)cyclopropane-1-carbonitrile [Example 420]”, in assay [1], the “MDM2 % at concentration” value came out at 68%@0.0010. For the same compound, the figures for the IC50 (with SJSA-1 (setting [3]); in assay [2]) were 0.87 µM and 0.49 µM, respectively.

In the case of “1-({[(1R)-1-(4-chlorophenyl)-2-[(5-chloropyrimidin-2-yl)methyl]-7-fluoro-5-[1-hydroxy-1-(1-methyl-1H-imidazol-4-yl)propyl]-3-oxo-2,3-dihydro-1H-isoindol-1-yl]oxy}methyl)cyclopropane-1-carboxamide [Example 486]”, in assay [1], the “MDM2 % inhibition at 0.0010” value is 59%@0.0010. The 50% inhibitory concentration (IC50) was 0.051 µM in the assay on SJSA-1 (setting [3]) and 0.075 µM in assay [2].

As for “2-{[(1R)-1-(4-chlorophenyl)-1-[(1-cyanocyclopropyl)methoxy]-7-fluoro-5-[1-hydroxy-1-(1-methyl-1H-imidazol-4-yl)propyl]-3-oxo-2,3-dihydro-1H-isoindol-2-yl]methyl}pyrimidine-5-carbonitrile [Example 462]”, the “MDM2 % inhibition at 0.0010” value in assay [1] was 80%@0.0010. For the same compound, the IC50 in the assay on SJSA-1 (setting [3]) worked out at 0.047 µM; in assay [2], 0.073 µM.

As to “2-{[(1R)-1-(4-chlorophenyl)-7-fluoro-1-({1-[hydroxydideuteromethyl]cyclopropyl}dideuteromethoxy)-5-(2-hydroxypropan-2-yl)-3-oxo-2,3-dihydro-1H-isoindol-2-yl]methyl}pyrimidine-5-carbonitrile [Example 513]”, the IC50 in assay [1] (read-out: MDM2 IC50) came out at 3.1 nM; in the assay with SJSA-1 (setting [3]), 0.38 µM; in assay [2] it was 0.26 µM.

“2-{[(1R)-1-(4-chlorophenyl)-7-fluoro-5-[1-(4-fluoro-1-methylpiperidin-4-yl)-1-hydroxypropyl]-1-methoxy-3-oxo-2,3-dihydro-1H-isoindol-2-yl]methyl}pyrimidine-5-carbonitrile [Example 575]”: in assay [1], the “MDM2 % inhibition at 0.0010” value was found to be 38%@0.0010. The values for the IC50 (with SJSA-1 (setting [3]); in assay [2]) were 0.066 µM and 0.028 µM, respectively.

For “2-{[(1R)-1-(4-chlorophenyl)-7-fluoro-5-[1-(4-fluoro-1-methylpiperidin-4-yl)-1-hydroxypropyl]-3-oxo-1-[(3S)-oxolan-3-yloxy]-2,3-dihydro-1H-isoindol-2-yl]methyl}pyrimidine-5-carbonitrile [Example 561]”, the “MDM2 % inhibition at 0.0010” value in assay [1] turned out to be 47%@0.0010. Moreover, the IC50 came out at 0.065 µM in the assay with SJSA-1 (setting [3]) and 0.021 µM in assay [2].

For “2-{[(1R)-1-(4-chlorophenyl)-7-fluoro-5-{1-hydroxy-1-[trans-4-hydroxycyclohexyl]propyl}-1-(2-hydroxyethoxy)-3-oxo-2,3-dihydro-1H-isoindol-2-yl]methyl}pyrimidine-5-carbonitrile [Example 510]”, the “MDM2 % inhibition at 0.0010” value in assay [1] is given as 79%@0.0010. The IC50 amounted to 0.073 µM in the assay with SJSA-1 (setting [3]) and 0.084 µM in assay [2].

As to “6-{[(1R)-1-(4-chlorophenyl)-7-fluoro-5-{1-hydroxy-1-[trans-4-hydroxycyclohexyl]propyl}-3-oxo-1-[cis-3-hydroxycyclobutoxy]-2,3-dihydro-1H-isoindol-2-yl]methyl}pyridine-3-carbonitrile [Example 518]”, the “MDM2 % inhibition at 0.0010” value in assay [1] amounted to 79%@0.0010. Besides, the IC50 with SJSA-1 (setting [3]) amounted to 0.065 µM; in assay [2], 0.058 µM.

One may read the inhibition as the share of the control response that was lost under treatment. As for `CC(O)(c1cc(F)c2c(c1)C(=O)N(Cc1ncc(Cl)cn1)[C@@]2(OCC1(CO)CC1)c1ccc(Cl)cc1)[C@H]1CC[C@H](O)CC1` (stereo partly drawn) [Example 401, (3R)-3-(4-chlorophenyl)-2-[(5-chloropyrimidin-2-yl)methyl]-4-fluoro-6-{1-hydroxy-1-[trans-4-hydroxycyclohexyl]ethyl}-3-{[1-(hydroxymethyl)cyclopropyl]methoxy}-2,3-dihydro-1H-isoindol-1-one], the IC50 in the assay with SJSA-1 (setting [3]) amounted to 0.0098 µM. Moreover, the inhibition at 10 µM in the assay with SN40R2 was found to be 6%.

In the case of `CCC(O)(c1cc(F)c2c(c1)C(=O)N(Cc1ccc(C#N)cn1)[C@@]2(OCC1(F)COC1)c1ccc(Cl)cc1)c1cn(C)cn1` (stereo partly drawn) [Example 435, 6-{[(1R)-1-(4-chlorophenyl)-7-fluoro-1-[(3-fluorooxetan-3-yl)methoxy]-5-[1-hydroxy-1-(1-methyl-1H-imidazol-4-yl)propyl]-3-oxo-2,3-dihydro-1H-isoindol-2-yl]methyl}pyridine-3-carbonitrile], the IC50 with SJSA-1 (Homo sapiens, SJSA-1, read-out: SJSA1 IC50 (μM) (Protocol B), Protocol B) came to 0.015 µM. In addition, in the assay with SN40R2, the inhibition at 10 µM stood at 0%.

As to `CCC(O)(c1cc(F)c2c(c1)C(=O)N(Cc1ccc(C#N)cn1)[C@@]2(O[C@H]1CCOC1)c1ccc(Cl)cc1)C1(F)CCOCC1` (stereo partly drawn) [Example 445, 6-{[(1R)-1-(4-chlorophenyl)-7-fluoro-5-[1-(4-fluorooxan-4-yl)-1-hydroxypropyl]-3-oxo-1-[(3S)-oxolan-3-yloxy]-2,3-dihydro-1H-isoindol-2-yl]methyl}pyridine-3-carbonitrile], in the assay on SN40R2, the inhibition at 10 µM was found to be 16%.

“(3R)-3-(4-chlorophenyl)-2-[(4-chlorophenyl)methyl]-4-fluoro-3-{[1-(hydroxymethyl)cyclopropyl]methoxy}-6-(2-hydroxypropan-2-yl)-2,3-dihydro-1H-isoindol-1-one [Example 2]”: the IC50 worked out at 3.4 µM with SJSA-1 (setting [3]) and 1.7 µM in assay [2].

Regarding “(3R)-3-(4-chlorophenyl)-2-[(5-chloropyridin-2-yl)methyl]-4-fluoro-6-[1-(4-fluoropiperidin-4-yl)-1-hydroxypropyl]-3-[(3S)-oxolan-3-yloxy]-2,3-dihydro-1H-isoindol-1-one [Example 548]”, the “MDM2 % inhibition at 0.0010” value in assay [1] turned out to be 82%@0.0010. Moreover, the results for the half-maximal inhibitory concentration (IC50) (with SJSA-1 (setting [3]); in assay [2]) were 0.17 µM and 0.14 µM, respectively.

On to “(3R)-3-(4-chlorophenyl)-2-[(5-chloropyrimidin-2-yl)methyl]-4-fluoro-3-[(3-fluorooxetan-3-yl)methoxy]-6-[1-hydroxy-1-(1-methylpiperidin-4-yl)ethyl]-2,3-dihydro-1H-isoindol-1-one [Example 558]”, for which, in assay [1] (at 0.0030 μM), the “MDM2 % inhibition at 0.0030” value came out at 53%@0.0030. For the same compound, the concentration for half-maximal inhibition (IC50) with SJSA-1 (setting [3]) worked out at 0.082 µM; in assay [2], 0.22 µM.

Turning to “(3R)-3-(4-chlorophenyl)-2-[(5-chloropyrimidin-2-yl)methyl]-4-fluoro-6-[1-(4-fluoro-1-methylpiperidin-4-yl)-1-hydroxypropyl]-3-[(3S)-oxolan-3-yloxy]-2,3-dihydro-1H-isoindol-1-one [Example 571]”, in assay [1], the “MDM2 % inhibition at 0.0010” value is reported as 77%@0.0010. Besides, the concentration for half-maximal inhibition (IC50) came out at 0.0085 µM in the assay with SJSA-1 (setting [3]) and 0.023 µM in assay [2].

With “(3R)-3-(4-chlorophenyl)-2-[(5-chloropyrimidin-2-yl)methyl]-4-fluoro-6-[1-[4-fluoro-1-(oxetan-3-yl)piperidin-4-yl]-1-hydroxypropyl]-3-methoxy-2,3-dihydro-1H-isoindol-1-one [Example 552]”, the “MDM2 % inhibition at 0.0010” value in assay [1] was found to be 79%@0.0010. Further, the figures for the IC50 (in the assay on SJSA-1 (setting [3]); in assay [2]) were 0.02 µM and 0.028 µM, respectively.

For “(3R)-3-(4-chlorophenyl)-2-[(5-chloropyrimidin-2-yl)methyl]-4-fluoro-6-[1-hydroxy-1-(1-methyl-1H-imidazol-4-yl)propyl]-3-[(3S)-oxolan-3-yloxy]-2,3-dihydro-1H-isoindol-1-one [Example 475]”, the “MDM2 % inhibition at 0.0010” value in assay [1] is listed as 71%@0.0010. Also, the IC50 in assay [2] came out at 0.028 µM.

On to “(3R)-3-(4-chlorophenyl)-2-[(5-chloropyrimidin-2-yl)methyl]-4-fluoro-6-[1-hydroxy-1-(1-methyl-1H-imidazol-4-yl)propyl]-3-{[1-(hydroxymethyl)cyclopropyl]methoxy}-2,3-dihydro-1H-isoindol-1-one [Example 477]”, for which the “MDM2 % inhibition at 0.0010” value in assay [1] is recorded as 86%@0.0010. The IC50 in the assay on SJSA-1 (setting [3]) came out at 0.0091 µM; in assay [2], 0.013 µM.

Consider “(3R)-3-(4-chlorophenyl)-2-[(5-chloropyrimidin-2-yl)methyl]-4-fluoro-6-[1-hydroxy-1-(1-methylpiperidin-4-yl)ethyl]-3-{[1-(hydroxymethyl)cyclopropyl]methoxy}-2,3-dihydro-1H-isoindol-1-one [Example 554]”, for which the “MDM2 % inhibition at 0.0010” value in assay [1] is given as 74%@0.0010. Further, the values for the IC50 (in the assay with SJSA-1 (setting [3]); in assay [2]) were 0.07 µM and 0.21 µM, respectively.

As for “(3R)-3-(4-chlorophenyl)-2-[(5-chloropyrimidin-2-yl)methyl]-4-fluoro-6-[(1S)-1-hydroxy-1-(1-methylpiperidin-4-yl)propyl]-3-{[1-(hydroxymethyl)cyclopropyl]methoxy}-2,3-dihydro-1H-isoindol-1-one [Example 556]”, the “MDM2 % inhibition at 0.0010” value in assay [1] is 91%@0.0010. In addition, the IC50 amounted to 0.0064 µM in the assay on SJSA-1 (setting [3]) and 0.056 µM in assay [2].

As to “(3R)-3-(4-chlorophenyl)-2-[(5-chloropyrimidin-2-yl)methyl]-4-fluoro-6-[(1S)-1-hydroxy-1-[1-(oxetan-3-yl)piperidin-4-yl]propyl]-3-methoxy-2,3-dihydro-1H-isoindol-1-one [Example 551]”, the “MDM2 % inhibition at 0.0010” value in assay [1] was 70%@0.0010. For the same compound, in assay [2], the IC50 turned out to be 0.031 µM.

As to “(3R)-3-(4-chlorophenyl)-2-[(5-chloropyrimidin-2-yl)methyl]-4-fluoro-6-{1-hydroxy-1-[trans-4-hydroxycyclohexyl]propyl}-3-(2-hydroxyethoxy)-2,3-dihydro-1H-isoindol-1-one [Example 517]”, the “MDM2 % inhibition at 0.0010” value in assay [1] amounted to 82%@0.0010. Further, the IC50 in assay [2] was determined as 0.019 µM.

Values taken from US20230338337A1, “BIOMARKERS FOR CANCER THERAPY USING MDM2 ANTAGONISTS” (OTSUKA PHARMACEUTICAL CO., LTD., priority 2019, published 2023).
